Test [1] addresses human recombinant phosphodiesterase (PDE3A) (Homo sapiens (Human), UniProt Q14432). As to the kind of experiment: Radiometric PDE3A assay. The class given is biochemical. The conditions noted are these: [3H]-cAMP hydrolysis, 20 minutes at 30° C. As for the experimental part: Partially purified human recombinant phosphodiesterase (PDE3A) was obtained by cloning cDNA and expressing in S. frugiperda insect cells using a baculovirus expression system. Cells were harvested from culture by centrifuging at 400×g for 5 minutes. Cell pellet was resuspended in 20 ml of RIPA Buffer (150 mM NaCl, 10 mM Tris, 0.1% NP-40, pH8.3), 4 ml/200 ml of culture, plus protease inhibitors (100 μl/10 ml) and incubated on ice for 10-20 minutes then spun at 3500×g for 10 minutes at 4° C. Supernatant was kept and the pellet thrown away. Tritium-labeled cyclic AMP was hydrolysed to 5′-AMP by PDE3A. The 5′-AMP was then further hydrolysed to adenosine by nucleotidase in snake venom. An anion-exchange resin binds all charged nucleotides and leaves [3H]adenosine as the only labeled compound to be counted by liquid scintillation. The radiometric assay method is a modification of the two-step method of Thompson and Appleman [Biochemistry 10; 311-316; 1971], adapted for a 96 well plate format. 50 μl of diluted PDE3A was incubated with 50 μl of [3H]-CAMP (specific activity 25 Ci/mmol) and 11 μl of 50% DMSO (or compound dilution) for 20 minutes at 30° C. The enzyme was diluted in 20 mM Tris HCl pH7.4 (×2.2 final concentration) and [3H]-cAMP were diluted in 10 mM MgCl2, 40 mM Tris HCl pH 7.4 (×2.2 final concentration). Reactions were carried out in Greiner 96 deep well 1 ml master-block. The plates were centrifuged for 9 seconds before the 20 minutes incubation. The reaction was terminated by denaturing the PDE enzyme (at 70° C. for 2 minutes, plates were left to cool on ice for 10 minutes) after which 25 μl snake venom nucleotidase (225 ug/ml final concentration) was added and incubated for 10 minutes (at 30° C.), plates were centrifuged for 9 seconds before incubation. After incubation 200 μl Dowex resin (1×8, 200-400 mesh) was added and the plate was shaken for 20 minutes then centrifuged for 3 minutes at 1000×g. 50 μl of supernatant was removed and added to 200 μl of MicroScint-20 in white plates (Greiner 96-well Optiplate) and shaken for 30 minutes before reading on Perkin Elmer TopCount Scintillation Counter. GraphPad Prism™ was used to calculate the IC50 values using a sigmoidal dose response (variable slope). The analysis measures 4 parameters including the best fit values for the bottom and top fit of the curve, the hill slope value and the IC50 value.

The target of test [2] is first bromodomain of BRD4 (Homo sapiens (Human), UniProt O60885). As to the kind of experiment: Bromoscan binding assay BRD4 (1). Particulars: for Kd: Bromoscan, geometric mean where multiple measurements have been made; for Selectivity BRD4(2)/BRD4(1): ratio BRD4(2) Kd / BRD4(1) Kd. As to the method:
(§1) Compounds were assayed for binding affinity using bromoscan assays and a phosphodiesterase three assay.
(§2) Bromoscan assays were run by DiscoveRx Corporation. The relevant assay names are BRD4 (1) for the first bromodomain of BRD4 and BRD4 (2) for the second bromodomain of BRD4. Further Bromoscan assays covering other bromodomains may be employed to establish the selectivity profile of a compound of interest. To run the Bromoscan assay, a T7 phage strain displaying the relevant bromodomain was grown in parallel in 24-well blocks in an E. coli host derived from the BL21 strain. E. coli were grown to log-phase and infected with T7 phage from a frozen stock (multiplicity of infection=0.4) and incubated with shaking at 32° C. until lysis (90-150 minutes). The lysates were centrifuged (5,000×g) and filtered (0.2 μm) to remove cell debris. […] The liganded beads were blocked with excess biotin and washed with blocking buffer (SeaBlock (Pierce), 1% BSA (bovine serum albumin), 0.05% Tween 20, 1 mM DTT (dithiothreitol)) to remove unbound ligand and to reduce non-specific phage binding. […] Test compounds were prepared as 1000× stocks in 100% DMSO and subsequently diluted 1:10 in monoethylene glycol (MEG) to create stocks at 100× the screening concentration (resulting stock solution is 10% DMSO/90% MEG). The compounds were then diluted directly into the assays such that the final concentration of DMSO and MEG were 0.1% and 0.9%, respectively. All reactions were performed in polystyrene 96-well plates in a final volume of 0.135 ml. […] The bromodomain concentration in the eluates was measured by qPCR (quantitative real-time polymerase chain reaction). Binding constants (Kds) were calculated with a standard dose-response curve using the Hill equation: Response=Blackground+((Signal-Background)/(1+Kd^Hill Slope/Dose^Hill Slope)). The Hill Slope was set to −1. Curves were fitted using a non-linear least square fit with the Levenberg-Marquardt algorithm.

Test [3] deals with second bromodomain of BRD4 (Homo sapiens (Human), UniProt O60885). As to the kind of experiment: Bromoscan binding assay BRD4 (2). Particulars: geometric mean where multiple measurements have been made. As to the method:
as §1, §2

Chain of human recombinant phosphodiesterase (PDE3A) (Q14432 whole entry): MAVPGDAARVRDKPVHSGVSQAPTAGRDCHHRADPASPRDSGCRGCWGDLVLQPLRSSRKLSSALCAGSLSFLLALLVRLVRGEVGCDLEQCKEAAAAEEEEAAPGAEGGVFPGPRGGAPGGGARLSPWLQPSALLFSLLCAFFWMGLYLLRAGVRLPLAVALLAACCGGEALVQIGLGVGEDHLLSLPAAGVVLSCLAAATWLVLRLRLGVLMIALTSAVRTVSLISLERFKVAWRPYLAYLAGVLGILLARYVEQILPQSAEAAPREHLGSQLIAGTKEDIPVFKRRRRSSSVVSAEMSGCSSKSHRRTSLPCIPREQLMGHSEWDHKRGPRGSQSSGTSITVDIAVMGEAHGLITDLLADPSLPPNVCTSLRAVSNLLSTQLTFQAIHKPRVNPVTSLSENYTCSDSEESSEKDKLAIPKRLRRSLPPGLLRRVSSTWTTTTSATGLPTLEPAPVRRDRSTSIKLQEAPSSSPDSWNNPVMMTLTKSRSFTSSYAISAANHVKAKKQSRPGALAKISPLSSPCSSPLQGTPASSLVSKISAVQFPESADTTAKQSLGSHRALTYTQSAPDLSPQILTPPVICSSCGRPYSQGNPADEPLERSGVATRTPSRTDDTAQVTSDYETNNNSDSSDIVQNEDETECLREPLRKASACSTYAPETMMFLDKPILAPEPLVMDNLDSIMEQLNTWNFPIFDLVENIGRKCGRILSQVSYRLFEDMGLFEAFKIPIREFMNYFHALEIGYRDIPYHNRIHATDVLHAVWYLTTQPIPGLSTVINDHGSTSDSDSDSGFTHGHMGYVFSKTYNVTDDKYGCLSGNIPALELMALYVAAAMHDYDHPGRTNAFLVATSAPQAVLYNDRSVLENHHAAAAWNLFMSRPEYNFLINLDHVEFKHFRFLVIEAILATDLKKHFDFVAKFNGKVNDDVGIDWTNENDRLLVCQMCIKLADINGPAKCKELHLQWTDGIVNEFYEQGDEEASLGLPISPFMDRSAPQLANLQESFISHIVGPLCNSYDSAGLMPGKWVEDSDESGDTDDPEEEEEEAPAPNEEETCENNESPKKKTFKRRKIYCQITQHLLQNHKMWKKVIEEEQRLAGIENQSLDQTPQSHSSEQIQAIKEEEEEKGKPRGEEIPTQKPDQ

A word on the IC50: it is the concentration that inhibits the measured activity by half. With `COc1cc(NC(=O)c2cc3c(nc2N2C[C@H]4C[C@@H]2CO4)COC3)cc2c(C)cc(=O)[nH]c12` [Example 24, N-(8-methoxy-4-methyl-2-oxo-1H-quinolin-6-yl)-2-[(1R,4R)-2-oxa-5-azabicyclo[2.2.1]heptan-5-yl]-5,7-dihydrofuro[3,4-b]pyridine-3-carboxamide], the half-maximal inhibitory concentration (IC50) in test [1] is over 10000 nM.
As usually defined, the Kd is the concentration at which binding is half-saturated. Read a low Kd as a tighter complex. `CCOc1cc(NC(=O)c2cc3c(nc2N2CCOCC2)COC3)cc2c(C)cc(=O)[nH]c12` [Example 12, N-(8-ethoxy-4-methyl-2-oxo-1H-quinolin-6-yl)-2-morpholino-5,7-dihydrofuro[3,4-b]pyridine-3-carboxamide]: the Kd in test [2] turned out to be 87 nM; in test [3] it was 8100 nM. For the same molecule, the “Selectivity BRD4(2)/BRD4(1)” value in test [2] was found to be 93. For the same molecule, in test [1], the concentration for half-maximal inhibition (IC50) was over 10000 nM.
The corresponding values for `COc1cc(NC(=O)c2cc3c(nc2N2CCOCC2)COC3)cc2c(C)cc(=O)[nH]c12` [Example 15, N-(8-methoxy-4-methyl-2-oxo-1H-quinolin-6-yl)-2-morpholino-5,7-dihydrofuro[3,4-b]pyridine-3-carboxamide] are 14 nM, 2200 nM, 157 and over 10000 nM.
In the same order, the values of `COc1cc(NC(=O)c2cc3c(nc2N(C)CC2CC2)COC3)cc2c(C)cc(=O)[nH]c12` [Example 26, 2-[cyclopropylmethyl(methyl)amino]-N-(8-methoxy-4-methyl-2-oxo-1H-quinolin-6-yl)-5,7-dihydrofuro[3,4-b]pyridine-3-carboxamide] are 51 nM, 3100 nM, 61 and over 10000 nM.
In the same order, the values of `COc1cc(NC(=O)c2cc3c(nc2N2CC[C@H](F)C2)COC3)cc2c(C)cc(=O)[nH]c12` [Example 41, 2-[(3S)-3-fluoropyrrolidin-1-yl]-N-(8-methoxy-4-methyl-2-oxo-1H-quinolin-6-yl)-5,7-dihydrofuro[3,4-b]pyridine-3-carboxamide] are 92 nM, over 10000 nM, over 109 and over 10000 nM.
On to `Cc1cc2[nH]c(=O)cc(C)c2cc1NC(=O)c1cc2c(nc1N1CCOCC1)COC2` [Example 11, N-(4,7-dimethyl-2-oxo-1H-quinolin-6-yl)-2-morpholino-5,7-dihydrofuro[3,4-b]pyridine-3-carboxamide], for which, in test [2], the Kd was 90 nM and the “Selectivity BRD4(2)/BRD4(1)” value is reported as over 111. The dissociation constant (Kd) in test [3] was over 10000 nM. Besides, in test [1], the concentration for half-maximal inhibition (IC50) turned out to be 7000 nM.
The corresponding values for `COc1cc(NC(=O)c2cc3c(nc2C2=CCOCC2)COC3)cc2c(C)cc(=O)[nH]c12` [Example 2, 2-(3,6-dihydro-2H-pyran-4-yl)-N-(8-methoxy-4-methyl-2-oxo-1H-quinolin-6-yl)-5,7-dihydrofuro[3,4-b]pyridine-3-carboxamide] are 64 nM, 41, 2600 nM and over 10000 nM.
Consider `CNCCOc1cc(NC(=O)c2cc3c(nc2N2CCOCC2)COC3)cc2c(C)cc(=O)[nH]c12` [Example 38, N-[4-methyl-8-[2-(methylamino)ethoxy]-2-oxo-1H-quinolin-6-yl]-2-morpholino-5,7-dihydrofuro[3,4-b]pyridine-3-carboxamide], for which, in test [2], the dissociation constant (Kd) was found to be 20 nM and the “Selectivity BRD4(2)/BRD4(1)” value is given as over 250. The dissociation constant Kd in test [3] is over 5000 nM. For the same molecule, in test [1], the concentration for half-maximal inhibition (IC50) is over 10000 nM.
In the same order, the values of `Cc1cc(=O)[nH]c2c(C)cc(NC(=O)c3cc4c(nc3N3CCOCC3)COC4)cc12` [Example 7, N-(4,8-dimethyl-2-oxo-1H-quinolin-6-yl)-2-morpholino-5,7-dihydrofuro[3,4-b]pyridine-3-carboxamide] are 40 nM, 178, 7100 nM and over 10000 nM.
The corresponding values for `COc1cc(NC(=O)c2cc3c(nc2N(C)C)COC3)cc2c(C)cc(=O)[nH]c12` [Example 6, 2-(dimethylamino)-N-(8-methoxy-4-methyl-2-oxo-1H-quinolin-6-yl)-5,7-dihydrofuro[3,4-b]pyridine-3-carboxamide] are 120 nM, 11, 1300 nM and over 10000 nM.
For the molecule `COc1cc(NC(=O)c2cc3c(nc2N2C[C@H](F)[C@@H](F)C2)COC3)cc2c(C)cc(=O)[nH]c12` (racemic) [Example 43, N-(8-methoxy-4-methyl-2-oxo-1H-quinolin-6-yl)-2-[rac-(3S,4S)-3,4-difluoropyrrolidin-1-yl]-5,7-dihydrofuro[3,4-b]pyridine-3-carboxamide], in test [2], binding was put at a Kd of 18 nM and the “Selectivity BRD4(2)/BRD4(1)” value came out at 22. The molecule further displayed a Kd in test [3] of 400 nM. The half-inhibitory concentration (IC50) in test [1] is over 10000 nM.
Consider `COc1cc(NC(=O)c2cc3c(nc2N2C4CCC2COC4)COC3)cc2c(C)cc(=O)[nH]c12` [Example 17, N-(8-methoxy-4-methyl-2-oxo-1H-quinolin-6-yl)-2-(3-oxa-8-azabicyclo[3.2.1]octan-8-yl)-5,7-dihydrofuro[3,4-b]pyridine-3-carboxamide], for which, in test [2], binding was put at a Kd of 25 nM and the “Selectivity BRD4(2)/BRD4(1)” value is listed as 44. The dissociation constant Kd in test [3] came to 1100 nM. Also, in test [1], the IC50 was over 10000 nM.
The corresponding values for `Cc1c(NC(=O)c2cc3c(nc2N2CCOCC2)COC3)cc2c(C)cc(=O)[nH]c2c1C` [Example 13, 2-morpholino-N-(4,7,8-trimethyl-2-oxo-1H-quinolin-6-yl)-5,7-dihydrofuro[3,4-b]pyridine-3-carboxamide] are 280 nM, over 35, over 10000 nM and over 10000 nM.
As to `COc1cc(NC(=O)c2cc3c(nc2N2C[C@H]4CCO[C@H]4C2)COC3)cc2c(C)cc(=O)[nH]c12` (racemic) [Example 22, N-(8-methoxy-4-methyl-2-oxo-1H-quinolin-6-yl)-2-[rac-(3aR,6aR)-2,3,3a,4,6,6a-hexahydrofuro[2,3-c]pyrrol-5-yl]-5,7-dihydrofuro[3,4-b]pyridine-3-carboxamide], in test [2], the dissociation constant Kd amounted to 170 nM and the “Selectivity BRD4(2)/BRD4(1)” value was 22. In addition, in test [3], binding was characterised by a dissociation constant (Kd) of 3800 nM.
Regarding `CCN1Cc2cc(C(=O)Nc3cc(OC)c4[nH]c(=O)cc(C)c4c3)c(N3CCOCC3)nc2C1` [Example 34, 6-ethyl-N-(8-methoxy-4-methyl-2-oxo-1H-quinolin-6-yl)-2-morpholino-5,7-dihydropyrrolo[3,4-b]pyridine-3-carboxamide], in test [2], the Kd worked out at 25 nM and the “Selectivity BRD4(2)/BRD4(1)” value came to 32. Moreover, the Kd in test [3] was 800 nM.
For `COc1cc(NC(=O)c2cc3c(nc2N2CCOCC2)CN(C2COC2)C3)cc2c(C)cc(=O)[nH]c12` [Example 33, N-(8-methoxy-4-methyl-2-oxo-1H-quinolin-6-yl)-2-morpholino-6-(oxetan-3-yl)-5,7-dihydropyrrolo[3,4-b]pyridine-3-carboxamide], in test [2], the dissociation constant Kd was determined as 13 nM and the “Selectivity BRD4(2)/BRD4(1)” value was determined as 23. In test [3], this molecule registered a dissociation constant (Kd) of 300 nM.

These data come from patent publication US20250382308A1, “COMPOUNDS ACTIVE TOWARDS BROMODOMAINS” (NUEVOLUTION A/S, priority 2022, published 2025).
